Measured values reported in ChEMBL document CHEMBL5137092, “Nostosin G and Spiroidesin B from the Cyanobacterium Dolichospermum sp. NIES-1697” (J Nat Prod, 2022).

The compounds below were run against Trypsin (Homo sapiens, UniProt P07477+P07478+P35030) (assay: Inhibition of trypsin (unknown origin) using Nalpha-benzoyl-D/L-arginine-4-nitroanilide hydrochloride as substrate preincubated for 5 mins followed by substrate addition and measured upto 30 mins by absorbance based assay).
Type: protein assay

SMILES | IC50
N=C(N)NCCC[C@@H](CO)NC(=O)[C@H](CCc1ccc(O)cc1)NC(=O)[C@H](O)Cc1ccc(O)cc1 | > 200000 nM
CC(=O)N[C@@H](CC(C)C)C(=O)N[C@@H](CC(C)C)C(=O)N[C@H](C=O)CCCNC(=N)N [LEUPEPTIN] | 600 nM
N=C(N)NCCC[C@@H](C=O)NC(=O)[C@H](CCc1ccc(O)cc1)NC(=O)[C@H](O)Cc1ccc(O)cc1 | 100 nM
